Laboratory results published in patent US9958433B2, “Method and system for in vitro developmental toxicity testing” (Agency for Science, Technology and Research, priority 2012, dated 2018).
Where two headings read alike, the source gives them in different places.

Columns and labels:
[1] = test system: micropatterned hESC colonies; experiment: Micropatterned hESC mesoendoderm pattern disruption (Brachyury immunofluorescence, Asymmetrical Ratio); conditions: for Asymmetrical Ratio decrease relative to untreated control: 3 days of differentiation, control ratio 3; for Asymmetrical Ratio after treatment (average intensity ratio of ring area to off-ring area): human, 3 days
From the text: In order to generate gradients of mechanical stress, circle or square shapes of Matrigel matrix with two different sizes (785000 μm2 or 196250 μm2) were designed using AutoCAD software. Then polydimethylsiloxane (PDMS) stencils were fabricated by using a laser-cutter (Universal Laser System) to cut the designated shape patterns on a 127 μm thick PDMS sheet (Specialty Silicone Products Inc.) and then bonding it to a laser-cut, 2 mm thick PDMS gasket. For cell patterning, the PDMS stencil was first sealed into a 60 mm petri dish by adding 200 μl 70% ethanol and dried in the tissue culture hood, then Matrigel™ (BD Biosciences) matrix was coated by at least hour incubation with the Matrigel™ solution (FIG. 1). Thereafter cells were seeded at a density of 4 million cells/ml. After 1 hour incubation for cell attachment, the stencil and excess unattached cells were removed. The surface was then passivated with 0.5% pluronic acid for 10 mins before 3-time washing. The acquired patterned hESC were incubated overnight in mTesR1 maintenance medium (StemCell Technologies) for stabilization and the mesoendoderm induction was started the next day.
The differentiation of patterned hESC colonies were induced by mesoendoderm induction medium, which comprises of 100 ng/ml Activin, 25 ng/ml BMP4 and 10 ng/ml FGF2 in basal serum-free APEL™ medium (STEMdiff™, StemCell Technologies). For developmental toxicity testing, the patterned hESC colonies were cultured in mesoendoderm induction medium together with the test chemical. The induction lasted 3 days and the medium is half changed daily with/without the test chemical.
Samples were fixed on Day 3 of differentiation. Immunofluorescence staining was done to check the expression distribution of early mesoendodermal marker Brachyury. Image acquisition was done under 10× objective using Olympus fluorescence microscope and Asymmetrical Ratio was calculated using MATLAB programming (FIG. 5). Results
Three known teratogens (0.1 mM Valproic acid (VPA), 0.05 ug/ml 5-Fluorouracil (5-FU), and 0.8 mM Thalidomide) were tested using this model. Mesoendoderm induction medium together with the drug was added into our model and incubated for 3 days before the samples were fixed for immunofluorescence staining of Brachyury. Half of the medium was changed daily with the drug. An untreated control which was only cultured in mesoendoderm induction medium without any drug was also done. […] In order to measure the disruption, we used Asymmetrical Ratio as a parameter to evaluate the asymmetrical patterns with or without drug treatment, which indicate the average intensity ratio of “ring” area to “off-ring” area (FIG. 5).

[2] = test system: μP-hESC colony; experiment: Live imaging / kymograph of collective cell migration in μP-hESC colony under drug treatment; assay type: cell-based, human
From the text: Spatially localized differentiated cells (at edge of stem cell colony) underwent coordinated cell movement to form a 3D-like structural motif as observed by live imaging (FIG. 8D). The trajectory of the coordinated cell movement can be seen from a space-time plot (kymograph) of the differentiating stem cells (FIG. 8E).

[3] = test system: μP-hESC colonies; experiment: PCA of morphological features of mesoendoderm motif in μP-hESC colonies (dose-dependent developmental toxicity)
Procedure: Alterations to the different morphological features of the mesoendoderm structural motif were quantitatively measured by image processing at different concentrations of drugs. These morphological features at different drug concentrations were analyzed with principal component analysis (PCA). A data point represents each morphological feature; the data point color represents the drug concentration used in the treatment. […] Data Collection Process: 1. Treat our μP-hESC colonies with 3 different concentrations of each drug and fix the samples on day 3 together with the untreated normal control samples. Acquire T immunofluorescence images of samples under Olympus fluorescence microscope. 2. Process all the T fluorescence images using Matlab to extract all the relevant morphological features of the samples representing the spatial distribution of the mesoendoderm motif (T^+ positive region in the images).

[4] = test system: hESC cell line H9; experiment: Cytotoxicity test (MTS) on hESC; conditions: at the drug's effective concentration (EC)
[5] = test system: adult human dermal fibroblasts (aHDFs); experiment: Cytotoxicity test (MTS) on adult fibroblasts; conditions: at the drug's effective concentration (EC)
[6] = test system: human; conditions: cited from earlier work
[7] = test system: hESC cell line H9
[8] = test system: adult human dermal fibroblasts (aHDFs)

| SMILES | Drug classification by developmental toxicity effect [3] | Concentrations at which spatial distribution of mesoendoderm motif was significantly disrupted (PCA) ([3]; human, 3 days) | Effective concentration (lowest concentration which significantly disrupted spatial localization of mesoendoderm motif) ([3]; human, 3 days) | Toxicity to H9 cells [4] | Toxicity to aHDFs [5] | Localization of the mesoendoderm motif (T+ region) [1] | Trajectories of collective cell migration (kymograph) [2] | further results |
| --- | --- | --- | --- | --- | --- | --- | --- | --- |
| O=c1[nH]cc(F)c(=O)[nH]1 [5-FU, 5-Fluorouracil] |  |  |  |  |  |  |  | Asymmetrical Ratio decrease relative to untreated control ([1]; 0.05 μg/ml 5-FU): 46.7%; Asymmetrical Ratio after treatment (average intensity ratio of ring area to off-ring area) ([1]; 0.05 μg/ml): 1.6 |
| CC1(C)S[C@@H]2[C@H](NC(=O)Cc3ccccc3)C(=O)N2[C@H]1C(=O)O [Penicillin G] |  |  |  |  |  |  |  | Localization of the mesoendoderm motif (T+ region) ([1]; day3, FIG. 9B): remained unchanged; Trajectories of collective cell migration (kymograph) ([2]; day2-3 of differentiation): unaffected; PCA clustering of morphological features by drug concentration ([3]; 3 concentrations of each drug, day 3): cannot be segregated; Drug classification by developmental toxicity effect ([3]; based on PCA and cytotoxicity test (MTS) results): non-developmental toxic; Concentrations at which spatial distribution of mesoendoderm motif was significantly disrupted (PCA) ([3]; day 3, μP-hESC colonies): > 1000 µg/mL; Effective concentration (lowest concentration which significantly disrupted spatial localization of mesoendoderm motif) ([3]; μP-hESC models): above 1000 μg/ml |
| CC1=C(/C=C/C(C)=C/C=C/C(C)=C/C(=O)O)C(C)(C)CCC1 [RA, retinoic acid] | teratogenic | >= 0.0036 μg/ml | ~0.0036 µg/mL | not toxic | not toxic |  |  |  |
| O=C1CCC(N2C(=O)c3ccccc3C2=O)C(=O)N1 (stereo not shown) [Thalidomide] | both teratogenic and embryotoxic | >= 300 μM | ~300 µM | toxic | not toxic | misplaced | disrupted | Asymmetrical Ratio decrease relative to untreated control ([1]; 0.8 mM Thalidomide): ~70%; Asymmetrical Ratio after treatment (average intensity ratio of ring area to off-ring area) ([1]; 0.8 mM): ~0.9; Developmental deformation [6]: causes developmental deformation in human; H9 cell survival [4]: > 50% |
| CCCC(CCC)C(=O)O [VPA, Valproic acid] | very embryotoxic | >= 0.8 mM | ~800 µM |  |  | misplaced | disrupted | Asymmetrical Ratio decrease relative to untreated control ([1]; 0.1 mM VPA): ~70%; Asymmetrical Ratio after treatment (average intensity ratio of ring area to off-ring area) ([1]; 0.1 mM): ~0.9; Toxicity to H9 cells [7]: very toxic; H9 cell survival ([7]; human): ~20%; Toxicity to aHDFs [8]: a little toxic |
